Data on 52 compounds can be found in the Deep4Chem optical property database.

A short description of this data set: photoluminescence quantum yield (fraction); solvent given as SMILES.

For the compound `CN(C)/C=N\c1ccc2c3c(cccc13)C(=O)c1ccccc1-2`, the photoluminescence quantum yield is, setting by setting: (in C1CCOC1) 0.23; (in CCCCCC) 0.31; (in CCO) 0.26; (in CCOC(C)=O) 0.28; (in CN(C)C=O) 0.2; (in CO) 0.27. The compound also returned a photoluminescence quantum yield (in Cc1ccccc1) of 0.66; a photoluminescence quantum yield (in ClC(Cl)(Cl)Cl) of 0.24; a photoluminescence quantum yield (in ClC(Cl)Cl) of 0.55; a photoluminescence quantum yield (in ClCCl) of 0.55; a photoluminescence quantum yield (in c1ccccc1) of 0.67. With `CC(C)(C)c1ccc2c(c1)c1cc(C(C)(C)C)ccc1n2-c1cccc(-c2nc(-c3cccc(-n4c5ccc(C(C)(C)C)cc5c5cc(C(C)(C)C)ccc54)c3)nc(-c3cccc(P(=O)(c4ccccc4)c4ccccc4)c3)n2)c1`, under “in O=P(c1ccccc1)(c1ccccc1)c1ccccc1Oc1ccccc1P(=O)(c1ccccc1)c1ccccc1”, the photoluminescence quantum yield was determined as 0.55. `COC(=O)CC1(C(=O)OC)Oc2c(c(C(C)=O)c3c(c2C(C)=O)OCO3)O1` gave a photoluminescence quantum yield (in CC#N) of 0.62. Regarding `CCn1c2ccccc2sc2c(C#N)c3oc4ccccc4oc3c(C#N)c21`, the photoluminescence quantum yield (in ClC(Cl)Cl) came to 0.23. For the compound `C=C(C)C(CN1C(=O)c2cccc3cccc(c23)C1=O)OO` (stereo not drawn), the photoluminescence quantum yield (in CCO) was 0.002.

Under “in ClCCl”, `c1ccc(-c2cccc3ncc(-c4ccccc4)n23)cc1` showed a photoluminescence quantum yield of 0.24. On the same count and under the same terms, next, `CN(C)c1ccc(C#Cc2ccc3c(N(C)C)cc(-c4ccccc4)cc3c2)cc1`: 0.76. Regarding `F[B-]1(F)n2c(cc3sc4ccccc4c32)C(c2ccc(I)cc2)=C2C=c3sc4ccccc4c3=[N+]21`, the photoluminescence quantum yield (in ClC(Cl)Cl) came out at 0.05. Take `CCCCc1cc2cccc3cc(CCCC)c4cc(-c5cc6[b-]7c(c5)c(CCCC)cc5cccc(cc6CCCC)[n+]75)cc1[b-]4[n+]23`: where the note is “in C1CCCCC1”, the photoluminescence quantum yield came to 0.06.

In the case of `Clc1ccc(/C=C(\c2ccccc2)c2nc3ccccc3o2)cc1`, for the setting “in CO”, the photoluminescence quantum yield was 0.002. Regarding `Cc1cc(C)n2c1C=[N+]1[N+](=C3C=NC=CN3[B-]1(F)F)[B-]2(F)F`, for the setting “in ClCCl”, the photoluminescence quantum yield is 0.57. Compound `Nc1cccc2ccccc12` returned a photoluminescence quantum yield (in C1CCCCC1) of 0.6. With `CCCCCCc1ccc(-n2c3[n+](c4c5ccccc5c5ccccc5c42)[B-](C)(C)c2cc(N(c4ccccc4)c4ccccc4)ccc2-3)cc1`, the photoluminescence quantum yield was found to be 0.86 (in C1CCOC1), 0.73 (in CC#N), 0.83 (in Cc1ccccc1) and 0.88 (in ClCCl). For the setting “in ClC(Cl)Cl”, `CCCCN1c2ccccc2Sc2cc(/C=C\c3cc(=O)oc4ccc(C)cc34)ccc21` returned a photoluminescence quantum yield of 0.7. With `Cc1cccc(C)c1`, the photoluminescence quantum yield (in C1CCCCC1) was found to be 0.25. Turning to `CC(C)(C)Nc1oc(C=Cc2ccccc2)c(C(=O)OC(C)(C)C)c1C(=O)OC(C)(C)C`, the photoluminescence quantum yield (in CC#N) is 0.311. As for `O=P1(c2ccccc2)C(c2ccccc2)=Cc2cc3ccccc3cc21` (stereo not drawn), the photoluminescence quantum yield (in ClCCl) is 0.37. On to `O=Cc1ccc(-c2cccc(-c3nc4ccccc4s3)c2O)o1`, for which the photoluminescence quantum yield came to 0.0846 (in CCO), 0.111 (in ClCCl) and 0.01 (in O).

For the compound `CC(C)(C)OC(=O)/C=C/C1=CC2=C(c3ccccc3)c3cccn3[B-](F)(F)[N+]2=C1`, the photoluminescence quantum yield (in ClCCl) is 0.1. As for `CCCN1/C(=C/C=C(/C=C/C2=[N+](CCC)c3ccccc3C2(C)C)c2cc[n+](C)cc2)C(C)(C)c2ccccc21`, the photoluminescence quantum yield by setting is: (in CO) 0.14; (in CS(C)=O) 0.12; (in O) 0.02. `C=C[Si]1(C)c2ccccc2-c2cc3c(cc21)-c1ccccc1[Si]3(C)C=C` (stereo not drawn) displayed a photoluminescence quantum yield (in ClCCl) of 0.5.

In the case of `CCOC(=O)c1sc2nc3c(c(C#N)c2c1N)CCCC3`, the photoluminescence quantum yield (in c1ccccc1) is 0.046. `Brc1ccc(/C=C/c2ccncn2)cc1` gave a photoluminescence quantum yield (in ClCCl) of 0.01. Under “in CCO”, `Cc1cc(=O)oc2ccc3ccc(-c4cn(Cc5ccccc5)nn4)cc3c12` had a photoluminescence quantum yield of 0.35. Consider `C(=C1c2ccccc2-c2ccccc21)c1ccc(-c2ccc(C=C3c4ccccc4-c4ccccc43)cc2)cc1`, for which, for the setting “in C1CCOC1”, the photoluminescence quantum yield was determined as 0.0015.

In the case of `Cc1ccc(-c2ccc3ccc4cc(C(C)(C)C)cc5ccc2c3c45)cc1`, the photoluminescence quantum yield turned out to be 0.41 (in C1CCOC1) and 0.38 (in ClCCl). In the case of `COc1ccc(N(c2ccc(OC)cc2)c2ccc(-c3ccc(-c4ccc(-c5cccs5)c5nsnc45)s3)cc2)cc1`, the photoluminescence quantum yield (in ClC(Cl)Cl) worked out at 0.28. As to `CCCCCCc1ccc2c3c(ccc2c1)O[B-](c1ccccc1)(c1ccccc1)[N+](c1ccc([N+]2=Cc4c(ccc5cc(CCCCCC)ccc45)O[B-]2(c2ccccc2)c2ccccc2)cc1)=C3`, the photoluminescence quantum yield was found to be 0.32 (in C1CCOC1), 0.27 (in CC#N), 0.35 (in Cc1ccccc1) and 0.47 (in ClCCl). In turn, `N#Cc1cc2ccc(cc2)c2cccc3cccc(c4ccc(cc4)cc(C#N)c4ccc(cc4)c4cccc5cccc(c6ccc1cc6)c54)c32` yielded a photoluminescence quantum yield (in Cc1ccccc1) of 0.55. On to `CNC(=O)[C@H](C)NC(=O)c1cccc2c1C#Cc1c(NC(=O)[C@@H](NC(C)=O)C(C)C)cccc1OCCCO2`, for which the photoluminescence quantum yield stood at 0.02 (in CC#N) and 0.03 (in ClCCl). In the case of `F[B-]1(F)OC(c2ccc(C(F)(F)F)cc2)=Cc2cc(Cl)nc[n+]21`, the photoluminescence quantum yield stood at 0.01 (in C1CCOC1); 0.01 (in CC#N); 0.04 (in Cc1ccccc1); 0.01 (in ClC(Cl)Cl); 0.01 (in ClCCl). For the setting “in ClC(Cl)Cl”, `CCCCN1C(=O)c2cc(Oc3ccc(C(C)(C)C)cc3)c3c4c(Oc5ccc(C(C)(C)C)cc5)c(Oc5ccc(C(C)(C)C)cc5)c5c6c(cc(Oc7ccc(C(C)(C)C)cc7)c(c7c(Oc8ccc(C(C)(C)C)cc8)c(Oc8ccc(C(C)(C)C)cc8)c(c2c37)C1=O)c64)C(=O)N(CCCC)C5=O` gave a photoluminescence quantum yield of 0.75. `CC(C)(C)c1ccc2c(c1)c1cc(C(C)(C)C)ccc1n2-c1ccc(C#Cc2ccc(C#Cc3ccc(C=C(C#N)C#N)cc3)cc2)cc1`: the photoluminescence quantum yield (in ClCCl) was found to be 0.3.

With `N#Cc1cnc(-c2c3ccccc3cc3ccccc23)nc1`, the photoluminescence quantum yield stood at 0.07 (in CCO) and 0.07 (in ClCCl).

Consider `N#CC1=c2c3cccc4cccc(c43)n2[B-](F)(F)[n+]2ccccc21`, for which the photoluminescence quantum yield (in C1CCOC1) worked out at 0.86; the photoluminescence quantum yield (in CC#N) stood at 0.96; the photoluminescence quantum yield (in CCCCCC) is 0.75; the photoluminescence quantum yield (in Cc1ccccc1) worked out at 0.75; the photoluminescence quantum yield (in ClCCl) was 0.88. Under “in Cc1ccccc1”, `COc1ccc(C2=C(c3ccc(C)cc3)C(c3ccccc3)=[N+]3C2=Nc2c(-c4ccc(OC)cc4)c(-c4ccc(C)cc4)c(-c4ccccc4)n2[B-]3(F)F)cc1` had a photoluminescence quantum yield of 0.01. Still for that read-out and setting: next, `CCCC1=Cc2nc1ccc1[nH]c(cc1CCO)c1nc(ccc3[nH]c2cc3CCC)C(CCO)=C1`: 0.4. As for `CC(C)(C)c1ccc(C2=C(Br)C3=C(c4ccccc4)c4c(Br)c(-c5ccc(C(C)(C)C)cc5)c(-c5ccc(C(C)(C)C)cc5)n4[B-](F)(F)[N+]3=C2c2ccc(C(C)(C)C)cc2)cc1`, the photoluminescence quantum yield came to 0.13 (in C1CCCCC1); 0.11 (in C1CCOC1); 0.03 (in CC#N); 0.1 (in Cc1ccccc1); 0.09 (in ClCCl).

`CCCCC1(c2ccccc2)Nc2c(-c3ccc(N(C)c4ccccc4)cc3)ccc(-c3ccc(N(C)c4ccccc4)cc3)c2N=C1c1ccccc1` (stereo not drawn) showed a photoluminescence quantum yield (in ClC(Cl)Cl) of 0.01. Turning to `c1cc2ccc1-c1ccc(cc1)-c1ccc([se]1)-c1ccc(cc1)-c1ccc(cc1)-c1ccc([se]1)-c1ccc(cc1)-c1ccc(cc1)-c1ccc-2[se]1`, under “in C1CCOC1”, the photoluminescence quantum yield is 0.08. Where the note is “in CCO”, `CC/[NH+]=c1\cc2oc3cc(NCCC(=O)NC(C)C(=O)OC)c4ccccc4c3nc-2cc1C` (stereo not drawn) displayed a photoluminescence quantum yield of 0.39. Under “in C1CCCCC1”, `C(#Cc1ccccc1)C1=Cc2ccc3ccccc3c2NB1c1ccccc1` showed a photoluminescence quantum yield of 0.72. For the compound `c1ccc([B-]2(c3ccccc3)Oc3ccc4ccccc4c3-c3c4ccccc4nc[n+]32)cc1`, the photoluminescence quantum yield (in Cc1ccccc1) amounted to 0.25. `Cc1cccc(-c2c3ccccc3c(-c3cccc(C)n3)c3ccccc23)n1` showed a photoluminescence quantum yield (in ClCCl) of 0.77. For `C(=C\c1ccc2ccccc2c1)/c1ccc(Nc2ccccc2)cc1`, the photoluminescence quantum yield (in CC#N) stood at 0.28 and the photoluminescence quantum yield (in CCCCCC) was 0.46.

For the setting “in CN(C)C=O”, `CCN(CC)c1ccc(-c2nc(Oc3ccc(-c4nc5ccc(Cl)cc5o4)cc3)nc(Oc3ccc(-c4nc5ccc(Cl)cc5o4)cc3)n2)cc1` returned a photoluminescence quantum yield of 0.0179. On to `CC1(C)C(/C=C/C=C/c2cc3ccc(O)cc3oc2=O)=[N+](CCCS(=O)(=O)[O-])c2ccc(S(=O)(=O)O)cc21`, for which the photoluminescence quantum yield by setting is: (in CCO) 0.01; (in CS(C)=O) 0.017; (in O) 0.011. Consider `N#C/C(=C\c1ccncc1)c1nc(-c2ccc(Cl)cc2)cs1`, for which the photoluminescence quantum yield (in CC#N) was found to be 0.168. As for `CN(C)c1cc(-c2ccc(C#Cc3ccncc3)cc2)cc2ccccc12`, the photoluminescence quantum yield (in ClCCl) stood at 0.83.

In turn, `c1coc(-c2nc3ccccc3[nH]2)c1` gave a photoluminescence quantum yield (in C1CCOC1) of 0.87; a photoluminescence quantum yield (in CCCCCC) of 0.95; a photoluminescence quantum yield (in CCO) of 0.93; a photoluminescence quantum yield (in CCOCC) of 0.94; a photoluminescence quantum yield (in CO) of 0.97; a photoluminescence quantum yield (in ClC(Cl)Cl) of 0.28. Moreover, the photoluminescence quantum yield runs as follows: (in ClCCl) 0.86; (in O) 0.96. With `CCN(CC)c1ccc2cc(-c3ccc(-c4ccc(-c5cc6ccc(N(CC)CC)cc6oc5=O)cc4)cc3)c(=O)oc2c1`, the photoluminescence quantum yield (in ClCCl) is 0.75. For the compound `CN(C)C(=O)c1ccc(-c2nc3ccc(N(C)C)cc3s2)cc1`, the photoluminescence quantum yield by setting is: (in C1CCCCC1) 0.84; (in CC#N) 0.85; (in CC(C)O) 0.81; (in CO) 0.92; (in CS(C)=O) 0.9; (in ClC(Cl)Cl) 0.89. For the setting “in c1ccccc1”, this compound gave a photoluminescence quantum yield of 0.98.
